Reference: PMC6110851, “An Optimized MicroPET Imaging Method for the Distribution and Synergies of Natural Products” (Frontiers in Pharmacology, 2018)
Like-named read-outs stand apart in the source and are kept apart here.

Assays:
[1] = MicroPET distribution of [^18F]-GA after PG polysaccharides intervention; type: in vivo, mice; details: for tissue uptake at 1 h / tissue uptake at 168 h: male, Kunming, mouse, lungs, po; for tissue uptake at 1 h: PG polysaccharides orally 1 h before [^18F]-GA, read-out: %ID/g of [^18F]-GA in the lungs, OA; for tissue uptake at 168 h: PG polysaccharides orally for 7 days, read-out: %ID/g of [^18F]-GA in the lungs, LA
Protocol: The mice were grouped by weight and housed in cages of the climate control room (25°C), with a photoperiod 12:12-h. During feeding, mice were free to access food and water. Mice were fasted for 24 h before the experiment. The mice were anesthetized with 4% isoflurane while preparing for scanning ([Constantinescu et al., 2013b]; [Cui et al., 2017]). Eighteen healthy male Kunming mice, weighing 20 ± 2 g, were divided into three groups, which were control group, once-administered (OA) group and long-term administration (LA) group. In the OA group, 1 h before the administration of [^18F]-GA, the mice were orally treated with PG polysaccharides. In the LA group, the mice were orally given the PG polysaccharides for 7 days, but not before the administration of [^18F]-GA.
Rice received a tail vein injection (8.67 ± 2.14 MBq/μg) of [^18F]-GA and placed in the scanner bed and mouse-imaging room immediately ([Constantinescu et al., 2013b]; [O’Doherty et al., 2017]). Firstly, 2 h PET scanning was performed using an Inveon-dedicated PET scanner. The average delay between injection and starting of PET scanning was 3.5 min. Rice were maintained stable under 4% isoflurane anesthesia throughout scanning. The PET list-mode data were dynamically classified into 23 3D sinograms of span and three ring difference. After Fourier recombination, the data were reconstructed using a 2D ordered-subset expectation maximization algorithm. Random events were excluded before reconstruction. The response of detector is normalized using a component-based approach. All dynamic images were corrected for radioactive decay automatically. The PET images were reconstructed by a cone beam algorithm into 480 × 480 × 632 image arrays. After the reconstruction, images were spatially transformed to match the PET images ([Constantinescu et al., 2013a],[b]).
The reconstruction of the image was performed using the PMOD software (PMOD Technologies). The 3D volumes of interest (VOIs) were drawn manually of the following organs: brain, heart, liver, lungs, kidneys, cortical bone, and gallbladder. The organs were carefully identified and VOIs were drawn as irregular contours on high-resolution PET images obtained from each mouse ([Constantinescu et al., 2013b]; [Garg et al., 2017]). The size of each VOI was less than the actual size of each organ to minimize the effects of PET on adjacent organ spills. The VOIs drawing was verified by a second operator. The VOIs of cortical bone were generated by first using PET image to depict the entire femur bone ([Constantinescu et al., 2013b]). The VOI was transferred to a dynamic PET image and the mean time-activity curve (TAC) of the decay correction was extracted for each target organ ([Constantinescu et al., 2013b]).

[2] = test system: NF-κB; assay: NF-κB dual luciferase reporter assay in TNF-stimulated HEK 293 T cells; type: cell-based; details: after decay of radioactivity, HEK 293T stimulated by TNF-α
Protocol: The separation process was repeated five times for use in the activity tests. […] After 48 h, radioactive elements had decayed, the residues were stored at 4°C for anti-inflammatory activity tests ([Dong et al., 2013]; [Qingxin et al., 2016]).
HEK 293 T cells were cultured in standard Dulbecco’s modified Eagle’s medium (DMEM; Hyclone) supplemented with 10% fetal bovine serum (FBS; Biological Industries). The cells were placed in 96-well plates at 37°C in an air-CO2 environment (95/5% v/v). Cells were grown to 80–90% confluence and incubated for 12 h in DMEM without FBS. Transfection (20 h) was performed according to the manufacturer’s instructions. HEK 293 T cells were pretreated with drugs 1 h prior to TNF-stimulation (5 ng/mL) for 6 h. Dex (10^-5mol/L) was used as a positive control for NF-κB inhibition. The NF-κB activity was assayed using dual luciferase reporter assay system (Promega) according to the manufacturer’s instructions ([Qingxin et al., 2016]). Antiinflammatory activity was calculated as the ratio of firefly luciferase activity to Renilla luciferase activity (internal control).

CC1(C)[C@@H](O)CC[C@]2(C)[C@H]3C(=O)C=C4[C@@H]5C[C@@](C)(C(=O)NCCCC[18F])CC[C@]5(C)CC[C@@]4(C)[C@]3(C)CC[C@@H]12 [[^18F]-GA, [^18F]-Glycyrrhetinic acid]
tissue uptake at 1 h ([1]; mice, Time(s) 1650): 4.06 %ID/g | tissue uptake at 1 h ([1]; mice, Time(s) 1950): 3.95 %ID/g | tissue uptake at 1 h ([1]; mice, Time(s) 2250): 3.79 %ID/g | tissue uptake at 1 h ([1]; mice, Time(s) 2700): 3.54 %ID/g | tissue uptake at 1 h ([1]; mice, Time(s) 3300): 3.17 %ID/g | tissue uptake at 1 h ([1]; mice, Time(s) 3900): 3.06 %ID/g | tissue uptake at 1 h ([1]; mice, Time(s) 4500): 3.07 %ID/g | tissue uptake at 1 h ([1]; mice, Time(s) 5100): 2.96 %ID/g | tissue uptake at 1 h ([1]; mice, Time(s) 5700): 2.88 %ID/g | tissue uptake at 1 h ([1]; mice, Time(s) 6300): 2.95 %ID/g | tissue uptake at 1 h ([1]; mice, Time(s) 6900): 2.85 %ID/g | tissue uptake at 168 h ([1]; mice, Time(s) 60): 8.74 %ID/g | tissue uptake at 168 h ([1]; mice, Time(s) 180): 4.38 %ID/g | tissue uptake at 168 h ([1]; mice, Time(s) 300): 3.63 %ID/g | tissue uptake at 168 h ([1]; mice, Time(s) 420): 3.15 %ID/g | tissue uptake at 168 h ([1]; mice, Time(s) 540): 2.85 %ID/g | tissue uptake at 168 h ([1]; mice, Time(s) 660): 2.9 %ID/g | tissue uptake at 168 h ([1]; mice, Time(s) 780): 2.51 %ID/g | tissue uptake at 168 h ([1]; mice, Time(s) 900): 2.49 %ID/g | tissue uptake at 168 h ([1]; mice, Time(s) 1020): 2.35 %ID/g | tissue uptake at 168 h ([1]; mice, Time(s) 1140): 2.19 %ID/g | tissue uptake at 168 h ([1]; mice, Time(s) 1350): 2.16 %ID/g | tissue uptake at 168 h ([1]; mice, Time(s) 1650): 2.06 %ID/g | tissue uptake at 168 h ([1]; mice, Time(s) 1950): 1.89 %ID/g | tissue uptake at 168 h ([1]; mice, Time(s) 2250): 1.78 %ID/g | tissue uptake at 168 h ([1]; mice, Time(s) 2700): 1.7 %ID/g | tissue uptake at 168 h ([1]; mice, Time(s) 3300): 1.48 %ID/g | tissue uptake at 168 h ([1]; mice, Time(s) 3900): 1.33 %ID/g | tissue uptake at 168 h ([1]; mice, Time(s) 4500): 1.24 %ID/g | tissue uptake at 168 h ([1]; mice, Time(s) 5100): 1.18 %ID/g | tissue uptake at 168 h ([1]; mice, Time(s) 5700): 1.06 %ID/g | tissue uptake at 168 h ([1]; mice, Time(s) 6300): 1.11 %ID/g | tissue uptake at 168 h ([1]; mice, Time(s) 6900): 1.05 %ID/g | %ID/g of [^18F]-GA in the lungs, Con ([1]; mice, control group, Time(s) 660): 2.45 %ID/g | change of [^18F]-GA concentration in other organs after PG polysaccharides intervention ([1]; organs other than lung): no significant change in other organs | inhibition of NF-κB activity ([2]; high concentration): significant inhibition of NF-κB activity | anti-inflammatory activity (NF-κB reporter) ([2]; low concentration): weak anti-inflammatory activity | inhibition of NF-κB activity ([2]; medium concentration): significant inhibition of NF-κB activity
